Test results as given in PubChem BioAssay AID2060904 (Molecular Pharmacology Branch, DTP, NCI, 2025).

System: 349418-098-R-PDC complex spheroid viability
Test: Anticancer human tumor 349418-098-R-PDC patient-derived lung adenocarcinoma cell line growth inhibition [RAS]
Conditions: for viability, T/C: stronger effect = lower value
Outline: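 Multi-cell-type spheroids: tumor cells plus HUVEC endothelial cells and mesenchymal stem cells. RAS-pathway inhibitors were combined with targeted agents, each dosed in half-log steps down from clinical Cmax, or from 10 microM when Cmax was unknown.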

[1] = curve of first compound, second compound 0.00316 µM
[2] = curve of first compound, second compound 0.01 µM
[3] = curve of first compound, second compound 0.0316 µM
[4] = curve of first compound, second compound 0.1 µM
[5] = curve of first compound, second compound 0.316 µM
[6] = curve of first compound, second compound 1 µM
[7] = second compound 0.00316 µM, first compound 0.0316 µM
[8] = second compound 0.00316 µM, first compound 0.1 µM
[9] = second compound 0.00316 µM, first compound 0.316 µM
[10] = second compound 0.00316 µM, first compound 1 µM
[11] = second compound 0.01 µM, first compound 0.0316 µM
[12] = second compound 0.01 µM, first compound 0.1 µM
[13] = second compound 0.01 µM, first compound 0.316 µM
[14] = second compound 0.01 µM, first compound 1 µM
[15] = second compound 0.0316 µM, first compound 0.0316 µM
[16] = second compound 0.0316 µM, first compound 0.1 µM
[17] = second compound 0.0316 µM, first compound 0.316 µM
[18] = second compound 0.0316 µM, first compound 1 µM
[19] = second compound 0.1 µM, first compound 0.0316 µM
[20] = second compound 0.1 µM, first compound 0.1 µM
[21] = second compound 0.1 µM, first compound 0.316 µM
[22] = second compound 0.1 µM, first compound 1 µM
[23] = second compound 0.316 µM, first compound 0.0316 µM
[24] = second compound 0.316 µM, first compound 0.1 µM
[25] = second compound 0.316 µM, first compound 0.316 µM
[26] = second compound 0.316 µM, first compound 1 µM
[27] = second compound 1 µM, first compound 0.0316 µM
[28] = second compound 1 µM, first compound 0.1 µM
[29] = second compound 1 µM, first compound 0.316 µM
[30] = second compound 1 µM, first compound 1 µM
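Also: spheroids exposed to compound for seven days before viability readout.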

CCN1CCN(Cc2ccc(Nc3ncc(F)c(-c4cc(F)c5nc(C)n(C(C)C)c5c4)n3)nc2)CC1 + C=CC(=O)N1CCN(c2nc(OCC3CCCN3C)nc3c(F)c(-c4nc(N)cc(C)c4C(F)(F)F)c(Cl)cc23)C(C)C1
IC50 [1]: 0.0173 µM
IC50 [2]: 0.0234 µM
IC50 [3]: 0.0302 µM
IC50 [4]: 0.0113 µM
IC50 [5]: 0.0208 µM
IC50 [6]: 0.0141 µM
viability, T/C (second compound 0.00316 µM, first compound 0.00316 µM): 77.6%
viability, T/C (second compound 0.00316 µM, first compound 0.01 µM): 62.2%
viability, T/C [7]: 35.9%
viability, T/C [8]: 25.7%
viability, T/C [9]: 20.9%
viability, T/C [10]: 15.7%
viability, T/C (second compound 0.01 µM, first compound 0.00316 µM): 89.4%
viability, T/C (second compound 0.01 µM, first compound 0.01 µM): 71.3%
viability, T/C [11]: 43.4%
viability, T/C [12]: 22.1%
viability, T/C [13]: 22.5%
viability, T/C [14]: 17%
viability, T/C (second compound 0.0316 µM, first compound 0.00316 µM): 78.8%
viability, T/C (second compound 0.0316 µM, first compound 0.01 µM): 96.2%
viability, T/C [15]: 48.4%
viability, T/C [16]: 22.5%
viability, T/C [17]: 21.6%
viability, T/C [18]: 17.5%
viability, T/C (second compound 0.1 µM, first compound 0.00316 µM): 72.8%
viability, T/C (second compound 0.1 µM, first compound 0.01 µM): 51.2%
viability, T/C [19]: 35.6%
viability, T/C [20]: 20.6%
viability, T/C [21]: 20.8%
viability, T/C [22]: 17.4%
viability, T/C (second compound 0.316 µM, first compound 0.00316 µM): 82.8%
viability, T/C (second compound 0.316 µM, first compound 0.01 µM): 74%
viability, T/C [23]: 35.2%
viability, T/C [24]: 34.3%
viability, T/C [25]: 25.2%
viability, T/C [26]: 18.1%
viability, T/C (second compound 1 µM, first compound 0.00316 µM): 61.5%
viability, T/C (second compound 1 µM, first compound 0.01 µM): 49.1%
viability, T/C [27]: 46.7%
viability, T/C [28]: 29%
viability, T/C [29]: 22.1%
viability, T/C [30]: 19.1%

CC(=O)OC12COC1CC(O)C1(C)C(=O)C(O)C3=C(C)C(OC(=O)C(O)C(NC(=O)OC(C)(C)C)c4ccccc4)CC(O)(C(OC(=O)c4ccccc4)C21)C3(C)C (configuration not stated) + C=CC(=O)N1CCN(c2nc(OCC3CCCN3C)nc3c(F)c(-c4nc(N)cc(C)c4C(F)(F)F)c(Cl)cc23)C(C)C1
IC50 [1]: < 0.0316 µM
IC50 [2]: < 0.0316 µM
IC50 [3]: < 0.0316 µM
IC50 [4]: < 0.0316 µM
IC50 [5]: < 0.0316 µM
IC50 [6]: < 0.0316 µM
viability, T/C [7]: 12.6%
viability, T/C [8]: 17.8%
viability, T/C [9]: 16.3%
viability, T/C [10]: 20.1%
viability, T/C (second compound 0.00316 µM, first compound 3.16 µM): 23.8%
viability, T/C (second compound 0.00316 µM, first compound 10 µM): 23.6%
viability, T/C [11]: 12.8%
viability, T/C [12]: 16.6%
viability, T/C [13]: 14.5%
viability, T/C [14]: 20.7%
viability, T/C (second compound 0.01 µM, first compound 3.16 µM): 19.3%
viability, T/C (second compound 0.01 µM, first compound 10 µM): 19.1%
viability, T/C [15]: 16.9%
viability, T/C [16]: 15.2%
viability, T/C [17]: 15.4%
viability, T/C [18]: 22.6%
viability, T/C (second compound 0.0316 µM, first compound 3.16 µM): 22.9%
viability, T/C (second compound 0.0316 µM, first compound 10 µM): 26.5%
viability, T/C [19]: 13%
viability, T/C [20]: 15%
viability, T/C [21]: 16.5%
viability, T/C [22]: 16.1%
viability, T/C (second compound 0.1 µM, first compound 3.16 µM): 24.3%
viability, T/C (second compound 0.1 µM, first compound 10 µM): 21.4%
viability, T/C [23]: 16.8%
viability, T/C [24]: 18.1%
viability, T/C [25]: 18.2%
viability, T/C [26]: 18.2%
viability, T/C (second compound 0.316 µM, first compound 3.16 µM): 21.6%
viability, T/C (second compound 0.316 µM, first compound 10 µM): 25.6%
viability, T/C [27]: 13.8%
viability, T/C [28]: 12%
viability, T/C [29]: 18.8%
viability, T/C [30]: 20.2%
viability, T/C (second compound 1 µM, first compound 3.16 µM): 20.2%
viability, T/C (second compound 1 µM, first compound 10 µM): 25.8%

C#Cc1c(F)ccc2cc(O)cc(-c3ncc4c(N5CC6CCC(C5)N6)nc(OCC56CCCN5CC(F)C6)nc4c3F)c12 (configuration not stated)
viability, T/C (compound 0.0316 µM): 87.2% [middle of 8 runs]
viability, T/C (compound 10 µM): 71.8% [middle of 8 runs]
IC50 (compound alone, run of 06/10/2024): > 10 µM
